Source: patent US10208081B2, “Bile acid derivatives as FXR/TGR5 agonists and methods of use thereof” (Enanta Pharmaceuticals, Inc., priority 2014, dated 2019)

Target: human FXR (NR1H4) (Homo sapiens (Human), UniProt Q96RI1)
Experiment: Human FXR (NR1H4) Assay (Gal4 promoter driven luciferase reporter, Indigo Bioscience kit IB00601)
Type: cell-based
Conditions: for Efficacy (%): efficacy normalized to CDCA set as 100%; for EC50: potency ranges
Description: Assays Human FXR (NR1H4) Assay
Determination of a ligand mediated Gal4 promoter driven transactivation quantify ligand binding mediated activation of FXR. FXR Reporter Assay kit purchased from Indigo Bioscience (Catalogue number: IB00601) to determine the potency and efficacy of compound developed by Enanta that can induce FXR activation. The principle application of this reporter assay system is to quantify functional activity of human FXR. The assay utilizes non-human mammalian cells, CHO (Chinese hamster ovary) cells engineered to express human NR1H4 protein (referred to as FXR). Reporter cells also incorporate the cDNA encoding beetle luciferase which catalyzes the substrates and yields photon emission. Luminescence intensity of the reaction is quantified using a plate-reading luminometer, Envision. Reporter Cells include the luciferase reporter gene functionally linked to an FXR responsive promoter. Thus, quantifying changes in luciferase expression in the treated reporter cells provides a sensitive surrogate measure of the changes in FXR activity. […] The assay is according to the manufacturer's instructions. In brief, the assay was performed in white, 96 well plates using final volume of 100 ul containing cells with different doses of compounds. Retrieve Reporter Cells from −80° C. storage. Perform a rapid thaw of the frozen cells by transferring a 10 ml volume of 37° C. cell recovery medium into the tube of frozen cells. Recap the tube of Reporter Cells and immediately place it in a 37° C. water bath for 5-10 minutes. Retrieve the tube of Reporter Cell Suspension from the water bath. Sanitize the outside surface of the tube with a 70% alcohol swab, and then transfer it into the cell culture hood. Dispense 90 μl of cell suspension into each well of the 96-well Assay Plate. Transfer the plate into 37° C. incubator, allowing the cells adherent to the bottom of the well. Dilute compounds in Dilution Plate (DP), and administrate to cells at Assay Plate (AP). DMSO content of the samples was kept at 0.2%. Cells were incubated for additional 22 hours before luciferase activities were measured. Thirty minutes before intending to quantify FXR activity, remove Detection Substrate and Detection Buffer from the refrigerator and place them in a low-light area so that they may equilibrate to room temperature. Remove the plate's lid and discard all media contents by ejecting it into an appropriate waste container. Gently tap the inverted plate onto a clean absorbent paper towel to remove residual droplets. Cells will remain tightly adhered to well bottoms. Add 100 μl of luciferase detection reagent to each well of the assay plate. Allow the assay plate to rest at room temperature for at least 5 minutes following the addition of LDR. Set the instrument (Envision) to perform a single 5 second “plate shake” prior to reading the first assay well. Read time may be 0.5 second (500 mSec) per well.

Sequence of human FXR (NR1H4) (Q96RI1 whole entry, the tested form may be a part): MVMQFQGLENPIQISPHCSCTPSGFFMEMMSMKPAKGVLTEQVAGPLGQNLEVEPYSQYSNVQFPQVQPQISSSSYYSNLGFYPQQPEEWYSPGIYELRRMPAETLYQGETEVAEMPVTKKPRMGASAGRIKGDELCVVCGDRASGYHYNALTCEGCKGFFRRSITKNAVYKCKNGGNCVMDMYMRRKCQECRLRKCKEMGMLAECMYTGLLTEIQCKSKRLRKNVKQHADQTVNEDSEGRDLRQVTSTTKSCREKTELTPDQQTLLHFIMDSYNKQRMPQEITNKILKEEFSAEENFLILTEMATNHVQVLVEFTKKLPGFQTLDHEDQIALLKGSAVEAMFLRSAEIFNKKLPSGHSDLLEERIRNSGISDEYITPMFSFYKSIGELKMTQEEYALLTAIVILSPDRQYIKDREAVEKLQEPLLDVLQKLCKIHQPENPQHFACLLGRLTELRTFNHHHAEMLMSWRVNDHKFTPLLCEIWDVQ

Structure (SMILES) | Efficacy (%) | EC50 [nM]
CC[C@H]1[C@@H](O)[C@@H]2[C@H](CC[C@]3(C)[C@@H]([C@H](C)CNC(=O)NS(=O)(=O)c4ccc(N5CCCCC5)cc4)CC[C@@H]23)[C@@]2(C)CC[C@@H](O)C[C@@H]12 [Example 118] | 267 | < 100
CC[C@H]1[C@@H](O)[C@@H]2[C@H](CC[C@]3(C)[C@@H]([C@H](C)CCNC(=O)NS(=O)(=O)N4CCOCC4)CC[C@@H]23)[C@@]2(C)CC[C@@H](O)C[C@@H]12 [Example 37] | 254 | < 100
CC[C@H]1[C@@H](O)[C@@H]2[C@H](CC[C@]3(C)[C@@H]([C@H](C)CCNC(=O)NS(=O)(=O)N4CCC5(CC4)COC5)CC[C@@H]23)[C@@]2(C)CC[C@@H](O)C[C@@H]12 [Example 74] | 242 | 100 to 1000
CC[C@H]1[C@@H](O)[C@@H]2[C@H](CC[C@]3(C)[C@@H]([C@H](C)CCNC(=O)NS(=O)(=O)c4c(F)c(F)c(F)c(F)c4F)CC[C@@H]23)[C@@]2(C)CC[C@@H](O)C[C@@H]12 [Example 92] | 325 | 1000 to 10000
CC[C@H]1[C@@H](O)[C@@H]2[C@H](CC[C@]3(C)[C@@H]([C@H](C)CNC(=O)NS(=O)(=O)c4cccc(N5CCCCC5)c4)CC[C@@H]23)[C@@]2(C)CC[C@@H](O)C[C@@H]12 [Example 121] | 199 | 100 to 1000
CC[C@H]1[C@@H](O)[C@@H]2[C@H](CC[C@]3(C)[C@@H]([C@H](C)CCNC(=O)NS(=O)(=O)N4CC5CC5C4)CC[C@@H]23)[C@@]2(C)CC[C@@H](O)C[C@@H]12 (stereo partly drawn) [Example 68] | 458 | < 100
CC[C@H]1[C@@H](O)[C@@H]2[C@H](CC[C@]3(C)[C@@H]([C@H](C)CCNC(=O)NS(=O)(=O)c4ccc5c(c4)CCCC5)CC[C@@H]23)[C@@]2(C)CC[C@@H](O)C[C@@H]12 [Example 57] | 297 | < 100
CC[C@H]1[C@@H](O)[C@@H]2[C@H](CC[C@]3(C)[C@@H]([C@H](C)CCNC(=O)NS(=O)(=O)N4CC(F)(F)C(F)(F)C4)CC[C@@H]23)[C@@]2(C)CC[C@@H](O)C[C@@H]12 [Example 81] | 315 | < 100
CC[C@H]1[C@@H](O)[C@@H]2[C@H](CC[C@]3(C)[C@@H]([C@H](C)CCNC(=O)NS(=O)(=O)c4ccc(N(C)C)cc4)CC[C@@H]23)[C@@]2(C)CC[C@@H](O)C[C@@H]12 [Example 119] | 363 | < 100
CC[C@H]1[C@@H](O)[C@@H]2[C@H](CC[C@]3(C)[C@@H]([C@H](C)CCNC(=O)NS(=O)(=O)C[C@@]45CCC(CC4=O)C5(C)C)CC[C@@H]23)[C@@]2(C)CC[C@@H](O)C[C@@H]12 [Example 61] | 403 | < 100
CC[C@H]1[C@@H](O)[C@@H]2[C@H](CC[C@]3(C)[C@@H]([C@H](C)CCNS(=O)(=O)O)CC[C@@H]23)[C@@]2(C)CC[C@@H](O)C[C@@H]12 [Example 131] | 8 | 1000 to 10000
CC[C@H]1[C@@H](O)[C@@H]2[C@H](CC[C@]3(C)[C@@H]([C@H](C)CNC(=O)NS(=O)(=O)c4ccc(-c5ccccc5)s4)CC[C@@H]23)[C@@]2(C)CC[C@@H](O)C[C@@H]12 [Example 114] | 322 | < 100
CC[C@H]1[C@@H](O)[C@@H]2[C@H](CC[C@]3(C)[C@@H]([C@H](C)CCNC(=O)NS(=O)(=O)c4ccc5c(c4)OCCO5)CC[C@@H]23)[C@@]2(C)CC[C@@H](O)C[C@@H]12 [Example 58] | 307 | < 100
CC[C@H]1[C@@H](O)[C@@H]2[C@H](CC[C@]3(C)[C@@H]([C@H](C)CCNC(=O)NS(=O)(=O)C4CC4)CC[C@@H]23)[C@@]2(C)CC[C@@H](O)C[C@@H]12 [Example 5] | 369 | 100 to 1000
CC[C@H]1[C@@H](O)[C@@H]2[C@H](CC[C@]3(C)[C@@H]([C@H](C)CNC(=O)NS(=O)(=O)C4CC4)CC[C@@H]23)[C@@]2(C)CC[C@@H](O)C[C@@H]12 [Example 30] | 194 | 1000 to 10000
CC[C@H]1[C@@H](O)[C@@H]2[C@H](CC[C@]3(C)[C@@H]([C@H](C)CCNC(=O)NS(=O)(=O)c4ccc(F)cc4)CC[C@@H]23)[C@@]2(C)CC[C@@H](O)C[C@@H]12 [Example 94] | 361 | < 100
CC[C@H]1[C@@H](O)[C@@H]2[C@H](CC[C@]3(C)[C@@H]([C@H](C)CCNC(=O)NS(=O)(=O)N4CCN(C(C)(C)C)CC4)CC[C@@H]23)[C@@]2(C)CC[C@@H](O)C[C@@H]12 [Example 84] | 351 | 100 to 1000
CC[C@H]1[C@@H](O)[C@@H]2[C@H](CC[C@]3(C)[C@@H]([C@H](C)CCNC(=O)NS(=O)(=O)C[C@]45CCC(CC4=O)C5(C)C)CC[C@@H]23)[C@@]2(C)CC[C@@H](O)C[C@@H]12 [Example 60] | 346 | < 100
CC[C@H]1[C@@H](O)[C@@H]2[C@H](CC[C@]3(C)[C@@H]([C@H](C)CCNC(=O)NS(=O)(=O)NC)CC[C@@H]23)[C@@]2(C)CC[C@@H](OC(=O)C(F)(F)F)C[C@@H]12 [Example 126] | 238 | 1000 to 10000
CC[C@H]1[C@@H](O)[C@@H]2[C@H](CC[C@]3(C)[C@@H]([C@H](C)CCNS(=O)(=O)c4cccc(N5CCCCC5)c4)CC[C@@H]23)[C@@]2(C)CC[C@@H](O)C[C@@H]12 [Example 133] | 80 | > 10000
CC[C@H]1[C@@H](O)[C@@H]2[C@H](CC[C@]3(C)[C@@H]([C@H](C)CCNC(=O)NS(=O)(=O)c4ccc(-c5cnc(C)o5)cc4C)CC[C@@H]23)[C@@]2(C)CC[C@@H](O)C[C@@H]12 [Example 79] | 249 | 100 to 1000
CC[C@H]1[C@@H](O)[C@@H]2[C@H](CC[C@]3(C)[C@@H]([C@H](C)CCNC(=O)NS(=O)(=O)C(F)(F)F)CC[C@@H]23)[C@@]2(C)CC[C@@H](O)C[C@@H]12 [Example 104] | 298 | 1000 to 10000
CC[C@H]1[C@@H](O)[C@@H]2[C@H](CC[C@]3(C)[C@@H]([C@H](C)CCCNC(=O)NS(=O)(=O)c4ccc(C(C)(C)C)cc4)CC[C@@H]23)[C@@]2(C)CC[C@@H](O)C[C@@H]12 [Example 12] | 327 | < 100
CC[C@H]1[C@@H](O)[C@@H]2[C@H](CC[C@]3(C)[C@@H]([C@H](C)CCNC(=O)NS(N)(=O)=O)CC[C@@H]23)[C@@]2(C)CC[C@@H](O)C[C@@H]12 [Example 124] | 195 | 1000 to 10000
CC[C@H]1[C@@H](O)[C@@H]2[C@H](CC[C@]3(C)[C@@H]([C@H](C)CNS(=O)(=O)CCC(=O)O)CC[C@@H]23)[C@@]2(C)CC[C@@H](O)C[C@@H]12 [Example 140] | 1 | 
CC[C@H]1[C@@H](O)[C@@H]2[C@H](CC[C@]3(C)[C@@H]([C@H](C)CCNC(=O)NS(=O)(=O)c4ccc(C)cc4)CC[C@@H]23)[C@@]2(C)CC[C@@H](O)C[C@@H]12 [Example 93] | 443 | < 100
CC[C@H]1[C@@H](O)[C@@H]2[C@H](CC[C@]3(C)[C@@H]([C@H](C)CCCNS(=O)(=O)c4ccccc4)CC[C@@H]23)[C@@]2(C)CC[C@@H](O)C[C@@H]12 [Example 10] | 168 | 100 to 1000
CC[C@H]1[C@@H](O)[C@@H]2[C@H](CC[C@]3(C)[C@@H]([C@H](C)CCNC(=O)NS(=O)(=O)c4ccc(-c5ccccc5)s4)CC[C@@H]23)[C@@]2(C)CC[C@@H](O)C[C@@H]12 [Example 108] | 203 | 100 to 1000
CC[C@H]1[C@@H](O)[C@@H]2[C@H](CC[C@]3(C)[C@@H]([C@H](C)CCNC(=O)NS(=O)(=O)c4cc(F)cc(F)c4)CC[C@@H]23)[C@@]2(C)CC[C@@H](O)C[C@@H]12 [Example 102] | 210 | < 100
